Measured values taken from patent publication US20040204577A1, “Novel peptide-forming enzyme gene” (Ajinomoto Co., Inc., priority 2003, published 2004).
Where a SMILES comes first, the peptide text is derived from it. [ ]: non-standard residue; d: D form.

Experiments:
[1] = tested on: peptide-forming enzyme (Mono S fraction enzyme); assay: Enzyme substrate specificity (1)-(10), (13), (14): peptide production; type: biochemical, Empedobacter brevis; set-up: key to Formed peptide: +: those peptides for which production was confirmed but which were unable to be quantified due to the absence of a standard; a trace amount; details: pH 9.0, 25° C., 3 hours; for Produced peptide: L-amino acid ester 100 mM, peptide (amine component) 150 mM
Description: Ester specificity was examined in the case of using L-amino acid ester for the carboxy component. 2 μl of the same enzyme fraction as used in Example 5 was added to 100 μl of 100 mM borate buffer (pH 9.0) containing the carboxy components indicated in Table 4 at 100 mM, 200 mM L-glutamine and 10 mM EDTA, and allowed to react at 25° C. for 2 hours. HCl represents hydrochloride in Table 4.
Peptide production was examined in the case of using L-alanine methyl ester for the carboxy component and using various L-amino acids for the amine component.
Peptide production was examined in the case of using various types of L-amino acid methyl esters for the carboxy component and using L-glutamine for the amine component. 2 μl of the same enzyme fraction as used in Example 5 was added to 100 μl of 100 mM borate buffer (pH 9.0) containing the L-amino acid methyl ester hydrochloride salts (AA-OMe.HCl) shown in Table 6 at 100 mM, 150 mM L-glutamine and 10 mM EDTA, and allowed to react at 25° C. for 3 hours. […] Furthermore, Tween-80 was added to the reaction system to a final concentration of 0.1% in the case of using L-Trp-OMe and L-Tyr-OMe.
Peptide production was examined in the case of using various L-amino acid methyl esters for the carboxy component and various L-amino acids for the amine component. 2 μl of the same enzyme fraction as used in Example 5 was added to 100 μl of 100 mM borate buffer (pH 9.0) containing the L-amino acid methyl ester hydrochloride salts (AA-OMe.HCl) shown in Table 7 at 100 mM, the L-amino acids shown in Table 7 at 150 mM and 10 mM EDTA, and allowed to react at 25° C. for 3 hours. The “tr” indicates a trace amount. Furthermore, Tween-80 was added to the reaction system to a final concentration of 0.1% in the case of using L-Trp-OMe.
Peptide production was examined in the case of using the L or D forms of various amino acid methyl esters for the carboxy component, and the L or D forms of various amino acids for the amine component. 2 μl of the same enzyme fraction as used in Example 5 was added to 100 μl of 100 mM borate buffer (pH 9.0) containing the various amino acid methyl ester hydrochloride salts (AA-OMe HCl) shown in Table 8 at 100 mM, the various amino acids shown in Table 8 at 150 mM and 10 mM EDTA, and allowed to react at 25° C. for 3 hours. The “tr” indicates a trace amount.
Peptide production was examined using various L-amino acid amides for the carboxy component, and various L-amino acids for the amine component. 2 μl of the same enzyme fraction as that used in Example 5 was added to 100 μl of 100 mM borate buffer (pH 9.0) containing the L-amino acid amide hydrochloride salt (M-NH2.HCl) shown in Table 9 at 100 mM, the L-amino acids shown in Table 9 at 150 mM and 10 mM EDTA, and allowed to react at 25° C. for 3 hours.
Peptide production was examined in the case of using various L-alanine methyl esters for the carboxy component and C-protected L-amino acids for the amine component. 2 μl of the same enzyme fraction as used in Example 5 was added to 100 μl of 100 mM borate buffer (pH 9.0) containing the L-alanine methyl ester hydrochloride hydrochloride salt (Ala-OMe.HCl) shown in Table 10 at 100 mM, the L-amino acid amide hydrochloride salts shown in Table 10 at 150 mM and 10 mM EDTA, and allowed to react at 25° C. for 3 hours.
Peptide production was examined in the case of using various amino acid methyl esters for the carboxy component and methylamine for the amine component. 2 μl of the same enzyme fraction as used in Example 5 was added to 100 μl of 100 mM borate buffer (pH 9.0) containing the amino acid methyl ester hydrochloride salt (M-OMe.HCl) shown in Table 11 at 100 mM, the methylamine shown in Table 11 at 150 mM and 10 mM EDTA, and allowed to react at 25° C. for 3 hours.
Peptide production was examined in the case of using […] for the carboxy component or β-amino acid for the amine component.

[2] = tested on: enzyme derived from Sphingobacterium sp. strain FERM BP-8124 (SP-Sepharose HP fraction enzyme); assay: Enzyme substrate specificity (11), (12): peptide production; type: biochemical; set-up: key to Produced peptide (Table 15-1) / Produced peptide (Table 15-3) / Produced peptide (Table 15-4): +: those peptides for which production was confirmed but which were unable to be quantified due to the absence of a standard; a trace amount; details: carboxy component 100 mM, 0.33 units enzyme, pH 9.0, 25° C., 1.5 hours; for Produced peptide (Table 15-3) / Produced peptide (Table 16, oligopeptide) / Produced peptide (Table 15-1) / Produced peptide (Table 15-4): amine component 150 mM; for Produced peptide (Table 15-2): L-Gln 150 mM; for Produced peptide (Table 15-4): amides and methylamine
Excerpt: Substrate specificity was examined for enzyme derived from Sphingobacterium sp. strain FERM BP-8124 (Depositary institution: the independent administrative corporation, National Institute of Advanced Industrial Science and Technology, International Patent Organism Depositary, Address of depositary institution: Chuo Dai-6, 1-1 Higashi 1-Chome, Tsukuba-shi, Ibaraki-ken, Japan, International deposit date: […] The amounts of various peptides formed in this reaction are shown in Table 15. The “+” mark indicates those peptides for which production was confirmed but which were unable to be quantified due to the absence of a standard, while “tr” indicates a trace amount. Furthermore, Tween-80 was added to the reaction system to a final concentration of 0.1% in the case of using L-Tyr-OMe. In addition, hydrochloride salts were used for all carboxy components. Substrate specificity with respect to oligopeptide production was examined for enzyme derived from Sphingobacterium sp. strain FERM BP-8124 (Depositary institution: the independent administrative corporation, National Institute of Advanced Industrial Science and Technology, International Patent Organism Depositary, Address of depositary institution: Chuo Dai-6, 1-1 Higashi 1-Chome, Tsukuba-shi, Ibaraki-ken, Japan, International deposit date: […] The amounts of each oligopeptide formed in this reaction are shown in Table 16. Furthermore, hydrochloride salts were used for all the carboxy components.

[3] = L-amino acid methyl ester hydrochloride 100 mM, L-amino acid 150 mM
[4] = L-amino acid methyl ester hydrochloride 100 mM, 150 mM L-glutamine
[5] = 100 mM L-alanine methyl ester hydrochloride, L-amino acid 150 mM
[6] = L-amino acid amide hydrochloride as carboxy component 100 mM, L-amino acid 150 mM
[7] = amino acid methyl ester hydrochloride 100 mM, methylamine 150 mM
[8] = L or D amino acid methyl ester hydrochloride 100 mM, L or D amino acid 150 mM

Compound: CC[C@H](C)[C@H](N)C(=O)N[C@@H](Cc1ccccc1)C(=O)O [L-Ile-L-Phe] (H-Ile-Phe-OH)
- Formed peptide [1, 3]: 5.2 mM
- Produced peptide (Table 15-3) [2]: 1.5 mM

Compound: NC(=O)CC[C@H](NC(=O)[C@@H](N)CCC(N)=O)C(=O)O [L-Gln-L-Gln] (H-Gln-Gln-OH)
- Formed peptide [1, 4]: 0.3 mM
- Produced peptide (Table 15-2) [2]: 0.1 mM

Compound: L-Ala-L-Ala-L-Ala-L-Ala-L-Ala
- Produced peptide [1]: 34.8 mM
- Produced peptide (Table 16, oligopeptide) [2]: 22.8 mM

Compound: C[C@H](N)C(=O)N[C@@H](CS)C(=O)O [L-Ala-L-CySH] (H-Ala-Cys-OH)
- Formed peptide [1, 5]: +
- Produced peptide (Table 15-1) [2]: +

Compound: CSCC[C@H](N)C(=O)N[C@@H](CCC(N)=O)C(=O)O [L-Met-L-Gln] (H-Met-Gln-OH)
- Formed peptide [1, 4]: 12.0 mM
- Produced peptide (Table 15-2) [2]: 32.6 mM

Compound: L-Ala-L-Phe-L-Ala
- Produced peptide [1]: 49.7 mM
- Produced peptide (Table 16, oligopeptide) [2]: 24.8 mM

Compound: NC(=O)CC[C@H](NC(=O)[C@@H](N)Cc1ccccc1)C(=O)O [L-Phe-L-Gln]
- Formed peptide [1, 6]: 0.2 mM
- Formed peptide [1, 4]: 0.9 mM
- Produced peptide (Table 15-2) [2]: 0.8 mM

Compound: NC(=O)CC[C@H](NC(=O)[C@@H](N)CCCN=C(N)N)C(=O)O [L-Arg-L-Gln] (H-Arg-Gln-OH)
- Formed peptide [1, 4]: 7.1 mM
- Produced peptide (Table 15-2) [2]: 17.2 mM

Compound: C[C@@H](O)[C@H](N)C(=O)NCC(=O)O [L-Thr-Gly] (H-Thr-Gly-OH)
- Formed peptide [1, 3]: 9.4 mM
- Produced peptide (Table 15-3) [2]: 0.4 mM

Compound: L-Thr-Gly-Gly
- Produced peptide [1]: 83.0 mM
- Produced peptide (Table 16, oligopeptide) [2]: 8.4 mM

Compound: NC(N)=NCCC[C@H](N)C(=O)N[C@@H](CO)C(=O)O [L-Arg-L-Ser] (H-Arg-Ser-OH)
- Formed peptide [1, 3]: 3.6 mM
- Produced peptide (Table 15-3) [2]: 2.2 mM

Compound: CNC(=O)[C@@H](N)[C@@H](C)O [L-Thr-methylamine]
- Formed peptide [1, 7]: 0.2 mM
- Produced peptide (Table 15-4) [2]: 0.3 mM

Compound: CSCC[C@H](NC(=O)[C@@H](N)[C@@H](C)O)C(=O)O [L-Thr-L-Met] (H-Thr-Met-OH)
- Formed peptide [1, 3]: 38.6 mM
- Produced peptide (Table 15-3) [2]: 28.9 mM

Compound: C[C@@H](N)C(=O)N[C@@H](CO)C(=O)O [D-Ala-L-Ser] (H-[dA]-Ser-OH)
- Formed peptide [1, 8]: 20.3 mM
- Produced peptide (Table 15-1) [2]: 24.1 mM

Compound: C[C@H](N)C(=O)NCC(=O)O [L-Ala-Gly] (H-Ala-Gly-OH)
- Formed peptide [1, 5]: 13.7 mM
- Produced peptide (Table 15-1) [2]: 11.1 mM

Compound: CNC(=O)C(C)N [L-Ala-methylamine]
- Formed peptide [1, 7]: 0.3 mM
- Produced peptide (Table 15-4) [2]: 0.6 mM

Compound: C[C@H](N)C(=O)N[C@H](C(=O)O)[C@@H](C)O [L-Ala-L-Thr] (H-Ala-Thr-OH)
- Formed peptide [1, 5]: 53.9 mM
- Produced peptide (Table 15-1) [2]: 47.3 mM

Compound: NC(N)=NCCC[C@H](N)C(=O)N[C@@H](Cc1ccccc1)C(=O)O [L-Arg-L-Phe]
- Formed peptide [1, 3]: 1.9 mM
- Produced peptide (Table 15-3) [2]: tr

Compound: L-Ala-L-His-L-Ala
- Produced peptide [1]: 55.9 mM
- Produced peptide (Table 16, oligopeptide) [2]: 58.0 mM

Compound: C[C@H](N)C(=O)N[C@@H](CC(=O)O)C(=O)O [L-Ala-L-Asp] (H-Ala-Asp-OH)
- Formed peptide [1, 5]: 2.1 mM
- Produced peptide (Table 15-1) [2]: 2.3 mM

Compound: C[C@H](N)C(=O)N[C@@H](CCCCN)C(=O)O [L-Ala-L-Lys] (H-Ala-Lys-OH)
- Formed peptide [1, 5]: 71.8 mM
- Produced peptide (Table 15-1) [2]: 71.2 mM

Compound: CSCC[C@H](NC(=O)[C@@H](N)CCCN=C(N)N)C(=O)O [L-Arg-L-Met] (H-Arg-Met-OH)
- Formed peptide [1, 3]: 0.7 mM
- Produced peptide (Table 15-3) [2]: tr

Compound: C[C@@H](O)[C@H](N)C(=O)N[C@@H](CCC(N)=O)C(=O)O [L-Thr-L-Gln] (H-Thr-Gln-OH)
- Formed peptide [1, 6]: 0.3 mM
- Formed peptide [1, 4]: 81.9 mM
- Produced peptide (Table 15-2) [2]: 36.1 mM

Compound: CC(C)[C@H](NC(=O)[C@@H](N)[C@@H](C)O)C(=O)O [L-Thr-L-Val] (H-Thr-Val-OH)
- Formed peptide [1, 3]: 0.7 mM
- Produced peptide (Table 15-3) [2]: 1.3 mM

Compound: L-Ala-L-Ala-L-Ala-L-Ala
- Produced peptide [1]: 44.5 mM
- Produced peptide (Table 16, oligopeptide) [2]: 30.1 mM

Compound: L-Ala-L-Phe-Gly
- Produced peptide [1]: 43.7 mM
- Produced peptide (Table 16, oligopeptide) [2]: 34.0 mM

Compound: CC[C@H](C)[C@H](N)C(=O)N[C@@H](CO)C(=O)O [L-Ile-L-Ser] (H-Ile-Ser-OH)
- Formed peptide [1, 3]: 17.2 mM
- Produced peptide (Table 15-3) [2]: 17.3 mM

Compound: NC(=O)CC[C@H](NC(=O)[C@@H]1CCCN1)C(=O)O [L-Pro-L-Gln] (H-Pro-Gln-OH)
- Formed peptide [1, 4]: 2.2 mM
- Produced peptide (Table 15-2) [2]: 1.8 mM

Compound: C[C@H](N)C(=O)N[C@H](CO)C(=O)O [L-Ala-D-Ser] (H-Ala-[dS]-OH)
- Formed peptide [1, 8]: 5.4 mM
- Produced peptide (Table 15-1) [2]: 3.3 mM

Compound: NCC(=O)N[C@@H](CCC(N)=O)C(=O)O [Gly-L-Gln] (H-Gly-Gln-OH)
- Formed peptide [1, 4]: 54.7 mM
- Produced peptide (Table 15-2) [2]: 61.1 mM

Compound: CC(C)[C@H](N)C(=O)N[C@@H](CCC(N)=O)C(=O)O [L-Val-L-Gln] (H-Val-Gln-OH)
- Formed peptide [1, 4]: 15.4 mM
- Produced peptide (Table 15-2) [2]: 8.2 mM

Compound: CC(C)[C@H](N)C(=O)N[C@@H](CO)C(=O)O [L-Val-L-Ser] (H-Val-Ser-OH)
- Formed peptide [1, 3]: 30.8 mM
- Produced peptide (Table 15-3) [2]: 31.9 mM

Compound: CC(C)[C@H](NC(=O)[C@H](C)N)C(=O)O [L-Ala-L-Val] (H-Ala-Val-OH)
- Formed peptide [1, 5]: 20.8 mM
- Produced peptide (Table 15-1) [2]: 10.9 mM
